In US20250213533A1 (GH RESEARCH IRELAND LIMITED, priority 2022, published 2025):

Experiments:
[1] = tested on: Salmonella typhimurium (TA98, TA100, TA1535 and TA1537); assay: Bacterial mutation test, histidine-requiring strains; assay type: cell-based; settings: up to 5000 μg/plate, absence and presence of rat liver S-9
Method: These conditions included treatments at concentrations up to 5000 μg/plate (the maximum recommended concentration according to current regulatory guidelines), in the absence and in the presence of a rat liver metabolic activation system (S-9).

5-HT1A receptors = target: T1, 5-HT1A receptors (Homo sapiens, UniProt P08908); assay: Radioligand binding ([3H]8-OH-DPAT) to 5-HT1A receptors in post-mortem human hippocampus membranes
T1 construct: 5-HT1A and 5-HT2A receptors in post-mortem human brain tissue from the hippocampus and frontal cortex, respectively; tissue Edinburgh Sudden Death Brain Bank; host or cells: post-mortem human hippocampus membranes
T1 sequence (P08908 1-422): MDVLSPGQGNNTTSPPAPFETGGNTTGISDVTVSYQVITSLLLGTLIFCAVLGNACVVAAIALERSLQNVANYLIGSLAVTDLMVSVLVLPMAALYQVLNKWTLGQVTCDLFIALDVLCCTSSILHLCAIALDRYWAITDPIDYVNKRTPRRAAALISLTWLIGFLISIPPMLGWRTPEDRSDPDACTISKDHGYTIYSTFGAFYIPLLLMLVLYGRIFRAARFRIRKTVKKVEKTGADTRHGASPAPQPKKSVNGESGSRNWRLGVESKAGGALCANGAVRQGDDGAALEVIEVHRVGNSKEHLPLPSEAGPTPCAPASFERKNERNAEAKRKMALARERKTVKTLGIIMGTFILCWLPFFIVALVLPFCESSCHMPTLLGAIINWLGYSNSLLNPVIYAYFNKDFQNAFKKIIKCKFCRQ

5-HT2A receptors = target: T2, 5-HT2A receptors (Homo sapiens, UniProt P28223); assay: Radioligand binding ([3H]MDL-100,907) to 5-HT2A receptors in post-mortem human frontal cortex membranes
T2 construct: 5-HT1A and 5-HT2A receptors in post-mortem human brain tissue from the hippocampus and frontal cortex, respectively; tissue Edinburgh Sudden Death Brain Bank; host or cells: post-mortem human frontal cortex membranes
T2 sequence (P28223 whole entry): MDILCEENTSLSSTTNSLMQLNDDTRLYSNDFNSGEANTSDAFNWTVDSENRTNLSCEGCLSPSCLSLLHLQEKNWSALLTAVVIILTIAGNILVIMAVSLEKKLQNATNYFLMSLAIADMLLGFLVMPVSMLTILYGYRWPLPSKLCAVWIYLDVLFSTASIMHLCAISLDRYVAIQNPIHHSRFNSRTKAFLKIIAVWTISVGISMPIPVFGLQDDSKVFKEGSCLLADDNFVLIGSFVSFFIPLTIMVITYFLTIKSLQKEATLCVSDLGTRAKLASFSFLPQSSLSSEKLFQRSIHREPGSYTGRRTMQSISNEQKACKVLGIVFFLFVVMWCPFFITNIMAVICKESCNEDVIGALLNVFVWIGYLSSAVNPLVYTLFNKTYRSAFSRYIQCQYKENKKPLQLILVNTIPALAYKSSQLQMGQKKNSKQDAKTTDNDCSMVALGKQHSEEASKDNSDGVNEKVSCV

Q: How did the induction of mutation [1] turn out when `COc1ccc2[nH]cc(CCN(C)C)c2c1` [5-MeO-DMT] was run?
A: The induction of mutation was “did not induce mutation”.

Q: And the “affinity for 5-HT1A receptors (in words)” value (5-HT1A receptors)?
A: The value was “high affinity”.

Q: What about the “affinity for 5-HT2A receptors (in words)” value (5-HT2A receptors) of the same compound?
A: The value was “comparatively weak affinity”.
